Reference: patent publication US6716836B2, “Non-nucleoside reverse transcriptase inhibitors” (Boehringer Ingelheim (Canada) Ltd., priority 2001, dated 2004)

Experiments:
[1] = target: T1, HIV-1 RT wild type (WT) (Human immunodeficiency virus type 1 group M subtype B, UniProt P04585); test: Reverse Transcriptase (RT) assay, wild type enzyme; format: biochemical
T1 construct: Heterodimeric RT was eluted using a descending gradient; made in house; host or cells: E. coli
Description: (§1) Among the enzymes for which Human Immunodeficiency Virus (HIV-1) encodes is a reverse transcriptase (1), so-named because it transcribes a DNA copy from an RNA template. This activity can be quantitatively measured in a cell-free enzyme assay, which has been previously described (2), and is based upon the observation that reverse transcriptase is able to use a synthetic template poly r(C) primed with oligo d(G) to transcribe a radio-labelled, acid-precipitable DNA strand utilising ^3H-dGTP as a substrate. The assay described below utilises the wild type (WT) enzyme, which is the predominant form of the enzyme observed with patients infected with HIV-1. Utilisation of mutant RT enzymes (for example, Y181C, prepared by site-directed mutagenesis in which the tyrosine residue at codon 181 has been replaced by a cysteine residue, or the mutants K103N, V106A and Y188C) and analogous assay conditions allows compounds to be evaluated for their effectiveness at inhibiting the mutant enzymes.
(§2) The HIV-1 RT expression clone, pKRT2, was obtained from Yale University (3). An overnight culture, grown in 2×YT medium (37° C., 225 rpm) (4), supplemented with 100 μg/mL ampicillin for positive selection was used to inoculate the 2×YT medium. The culture was incubated (37° C., 225 rpm) until it reached an OD600 of 0.6-0.9. At that time, the repressor inhibitor IPTG (isopropyl P-D-thiogalactopyranoside) was added to 0.5 mM, and the mixture was incubated for an additional 2 hours.
(§3) Purification of recombinant reverse transcriptase was performed using a combination of methods previously described (5). This procedure is summarised briefly as follows: E. Coli containing RT-1 wt or RT-1 (Y181 C) were suspended in 50 mM MES, pH 6.0 containing 10% glycerol, lysed in a French press, centrifuged, and the supernates discarded. Lysate pellets were extracted with buffer A (50 mM MES, pH 6.0, 100 mM KCl, 50 mM KPi, 10% glycerol, 0.02% hexyl-β-glucoside), and re-centrifuged; nucleic acid in supernates was precipitated with 0.1% polyethylenimine. […] Bound RT was eluted with a gradient of 0 to 1.0M
(§4) (NH4)2 SO4 in buffer B. Heparin-Sepharose fractions containing RT were concentrated (Amicon YM-30 membrane), combined with equal volumes of 2.0M (NH4)2SO4 in buffer B and injected onto a 21.5×150 mm TSK Phenyl-5PW HIC HPLC column (Phenomenex). Heterodimeric RT was eluted using a descending gradient of 1.0M to 0M (NH4)2SO4 in buffer B, concentrated, and stored at 4° C.
(§5) The 2.4× concentrated stock reaction mixture was aliquoted and stored at −20° C. The mixture is stable and can be thawed for use in each assay. This enzyme assay has been adapted to a 96 well microtiter plate system, and has been previously described (6). Tris buffer (50 mM, pH 7.8), vehicle (solvent diluted to match the compound dilution), or compounds in vehicle were dispensed into 96-well microtiter plates (10 μL/well; 3 wells/compound). The HIV-1 RT enzyme was thawed, diluted in 50 mM Tris pH 7.8 containing 0.05% Chaps to give 1.5 nM enzyme and 25 μL were dispensed per well. Ten μL of 0.5M EDTA were added to the first three wells of the microtiter plate. EDTA chelates the Mg^2+ present and prevents reverse transcription. This group served as background polymerisation, which was subtracted, from all other groups. Twenty-five μl of the 2.4× reaction mixture was added to all wells and the assay was allowed to incubate at room temperature for 30 minutes. The assay was terminated by precipitating the DNA in each well with 60 μL of sodium pyrophosphate (2% w/v) in 10% trichloroacetic acid (TCA) (10% w/v). The microtiter plate was incubated for 15 minutes at 4° C. and the precipitate was harvested onto #30 glass fibre paper (Schleicher & Schuell) using a Tomtech 96-well harvester. The filters were dried, placed in plastic bags with Betaplate scintillation cocktail (Pharmacia/LKB) and counted in the Betaplate counter (Pharmacia/LKB).
(§6) The calculation for percent inhibition is as follows: [formula] […]

[2] = target: T2, HIV-1 RT double mutant K103N/Y181C (Human immunodeficiency virus type 1 group M subtype B, UniProt P04585, K690N/Y768C); test: Reverse Transcriptase (RT) assay, double mutant enzyme; format: biochemical
T2 construct: Heterodimeric RT was eluted using a descending gradient; made in house; host or cells: E. coli (inferred; the text describes only wild type and Y181C preparations)
Description: as §1, §2, §3, §4, §5, §6

SMILES	IC50 [1] [nM]	IC50 [2] [nM]
CCN1c2ncc(COc3cccc4c3CS(=O)(=O)N4)cc2C(=O)N(C)c2ccc(F)nc21 [Compound 104]	> 1000	
CN1C(=O)c2cc(CCOc3cccc4c3CS(=O)(=O)N4)cnc2N(C2CC2)c2ncccc21 [Compound 105]	< 100	
Cc1cc(F)nc2c1NC(=O)c1cc(CCOc3cccc4c3CS(=O)(=O)N4)cnc1N2C1CC1 [Compound 106]	< 100	
CCN1c2ncc(COc3cccc4c3CS(=O)(=O)N4C)cc2C(=O)N(C)c2ccc(F)nc21 [Compound 107]	< 100	
CCN1c2ncc(COc3cccc4c3C(C)S(=O)(=O)N4C)cc2C(=O)N(C)c2ccc(F)nc21 (centres unmarked) [Compound 108]	100 to 1000	
CCN1c2ncc(CCOc3cccc4c3CS(=O)(=O)N4)cc2C(=O)Nc2c(C)cc(C)nc21 [Compound 109]	< 100	100 to 1000
CCN1c2ncc(CCOc3cccc4c3CS(=O)(=O)N4C)cc2C(=O)N(C)c2ccc(F)nc21 [Compound 111]	< 100	< 100
CCN1c2ncc(CCOc3cccc4c3CS(=O)(=O)N4C)cc2C(=O)Nc2c(C)cc(F)nc21 [Compound 112]	< 100	< 100
CCN1c2ncc(CCOc3cccc4c3CS(=O)(=O)N4)cc2C(=O)N(C)c2ccc(C)nc21 [Compound 113]	< 100	100 to 1000
CCN1c2ncc(CCOc3cccc4c3CS(=O)(=O)N4C)cc2C(=O)N(C)c2ccc(C)nc21 [Compound 114]	< 100	< 100
CCN1c2ncc(CCOc3cccc4c3CS(=O)(=O)N4CC)cc2C(=O)N(C)c2ccc(C)nc21 [Compound 115]	< 100	< 100
CN1C(=O)c2cc(CCOc3cccc4c3CS(=O)(=O)N4C)cnc2N(C2CC2)c2ncccc21 [Compound 116]	< 100	100 to 1000
Cc1cc(F)nc2c1NC(=O)c1cc(CCOc3cccc4c3CS(=O)(=O)N4C)cnc1N2C1CC1 [Compound 118]	< 100	100 to 1000
Cc1cc(F)nc2c1N(C)C(=O)c1cc(CCOc3cccc4c3CS(=O)(=O)N4C)cnc1N2C1CC1 [Compound 119]	< 100	100 to 1000
CCN1c2ncc(CCOc3cccc4c3CS(=O)(=O)N4)cc2C(=O)Nc2c(C)ccnc21 [Compound 120]	100 to 1000	
CCN1c2ncc(CCOc3cccc4c3CS(=O)(=O)N4CC3CC3)cc2C(=O)Nc2c(C)ccnc21 [Compound 121]	< 100	100 to 1000
CCOC(=O)N1c2cccc(OCCc3cnc4c(c3)C(=O)N(C)c3cccnc3N4CC)c2CS1(=O)=O [Compound 122]	< 100	< 100
CCN1c2ncc(CCOc3cccc4c3CS(=O)(=O)N4CC(=O)NO)cc2C(=O)N(C)c2cccnc21 [Compound 133]	< 100	< 100
CCN1c2ncc(CCOc3cccc4c3CS(=O)(=O)N4CC(=O)N(C)O)cc2C(=O)N(C)c2cccnc21 [Compound 134]	< 100	< 100
CCOC(=O)CCCN1c2cccc(OCCc3cnc4c(c3)C(=O)N(C)c3cccnc3N4CC)c2CS1(=O)=O [Compound 135]	< 100	< 100
CCN1c2ncc(CCOc3cccc4c3CS(=O)(=O)N4CC(=O)NC3CC3)cc2C(=O)N(C)c2cccnc21 [Compound 139]	< 100	100 to 1000
CCNC(=O)CN1c2cccc(OCCc3cnc4c(c3)C(=O)N(C)c3cccnc3N4CC)c2CS1(=O)=O [Compound 140]	< 100	< 100

SMILES	IC50 [1] [nM]	IC50 [2] [nM]
CCN1c2ncc(CCOc3cccc4c3CS(=O)(=O)N4CCOc3ccncc3)cc2C(=O)N(C)c2cccnc21 [Compound 142]	< 100	< 100
CCN1c2ncc(CCOc3cccc4c3CS(=O)(=O)N4CCOc3cc[n+]([O-])cc3)cc2C(=O)N(C)c2cccnc21 [Compound 143]	< 100	< 100
Cc1ccnc2c1NC(=O)c1cc(CCOc3cccc4c3CS(=O)(=O)N4Cc3cc[n+]([O-])cc3)cnc1N2C1CC1 [Compound 144]	< 100	100 to 1000
CCN1c2ncc(CCOc3cccc4c3CS(=O)(=O)N4Cc3cc[n+]([O-])cc3)cc2C(=O)Nc2c(C)cc(F)nc21 [Compound 145]	< 100	< 100
CCN1c2ncc(CCOc3cccc4c3CS(=O)(=O)N4Cc3cc[n+]([O-])cc3)cc2C(=O)Nc2c(C)cc(Cl)nc21 [Compound 146]	< 100	< 100
CCN1c2ncc(COc3cccc4c3CS(=O)(=O)N4Cc3cc[n+]([O-])cc3)cc2C(=O)N(C)c2ccc(F)nc21 [Compound 148]	< 100	
CCN1c2ncc(CCOc3cccc4c3C(C)(C)NS4(=O)=O)cc2C(=O)N(C)c2cccnc21 [Compound 224]	< 100	100 to 1000
Cc1ccnc2c1NC(=O)c1cc(CCOc3cccc4c3C(C)(C)NS4(=O)=O)cnc1N2C1CC1 [Compound 226]	< 100	> 1000
CCN1c2ncc(CCOc3ccc4c(c3)CNS4(=O)=O)cc2C(=O)N(C)c2cccnc21 [Compound 301]	< 100	100 to 1000
CCN1c2ncc(CCOc3ccc4c(c3)CN(C)S4(=O)=O)cc2C(=O)N(C)c2cccnc21 [Compound 303]	< 100	100 to 1000
CCN1c2ncc(CCOc3ccc4c(c3)C(C)(C)NS4(=O)=O)cc2C(=O)N(C)c2cccnc21 [Compound 306]	< 100	< 100
CCN1c2ncc(CCOc3ccc4c(c3)C(C)(C)N(C)S4(=O)=O)cc2C(=O)N(C)c2cccnc21 [Compound 307]	< 100	100 to 1000
CCN1c2ncc(CCOc3ccc4c(c3)CNS4(=O)=O)cc2C(=O)Nc2c(C)cc(F)nc21 [Compound 310]	< 100	100 to 1000
CCN1c2ncc(CCOc3ccc4c(c3)CS(=O)(=O)N4)cc2C(=O)N(C)c2cccnc21 [Compound 402]	< 100	> 1000
CCN1c2ncc(COc3ccc4c(c3)CS(=O)(=O)N4)cc2C(=O)N(C)c2ccc(F)nc21 [Compound 404]	< 100	> 1000
CCN1c2ncc(CCOc3ccc4c(c3)C(C)(C)S(=O)(=O)N4)cc2C(=O)Nc2c(C)cc(F)nc21 [Compound 409]	< 100	100 to 1000
CCN1c2ncc(CCOc3cccc4c3CCS(=O)(=O)N4CC(N)=O)cc2C(=O)N(C)c2cccnc21 [Compound 609]	< 100	< 100
CCN(CC)C(=O)N1c2cccc(OCCc3cnc4c(c3)C(=O)N(C)c3cccnc3N4CC)c2CCS1(=O)=O [Compound 610]	< 100	< 100
CCN1c2ncc(CCOc3cccc4c3CCS(=O)(=O)N4C(=O)N(C)OC)cc2C(=O)N(C)c2cccnc21 [Compound 611]	< 100	< 100
CCN(CC)CCN1c2cccc(OCCc3cnc4c(c3)C(=O)N(C)c3cccnc3N4CC)c2CCS1(=O)=O [Compound 613]	< 100	< 100
CCN1c2ncc(CCOc3cccc4c3CCS(=O)(=O)N4CC(=O)O)cc2C(=O)N(C)c2cccnc21 [Compound 614]	< 100	< 100
CCN1c2ncc(CCOc3cccc4c3C=CS(=O)(=O)N4)cc2C(=O)N(C)c2cccnc21 [Compound 808]	100 to 1000	
